Drawing on EP4631940A1, “COMPOUND TARGETING PAN-KRAS PROTEIN DEGRADATION AGENT AND USE THEREOF” (Betta Pharmaceuticals Co., Ltd., priority 2022, dated 2024), this text covers IC50 for seven compounds.

Holding throughout (assay): Cell proliferation experiment (CellTiter-Glo)
Holding throughout (assay type): cell-based
(In general: In ATP-based viability assays light output follows the ATP content of the culture.)

The subject of one assay is AGS. Conditions: read-out: IC50(nM) AGS.
Another assay relates to H358. As to conditions: H358, KRAS mutation type G12C, 96 h incubation.
In a further assay the test system is SW620. Conditions: read-out: IC50(nM) SW620.

Read-outs that look alike come from different tables or passages of the source.

`CCc1c(F)ccc2cc(O)cc(-c3ncc4c(N5CCCC(C)(O)C5)nc(OCC5(CN6CCC(COc7ccc(C(=O)N[C@H](C(=O)N8C[C@H](O)C[C@H]8C(=O)N[C@@H](C)c8ccc(-c9scnc9C)cc8)C(C)(C)C)cc7)CC6)CC5)nc4c3F)c12` (stereo partly drawn) [Compound 1, (2S,4R)-1-((2S)-2-(4-((1-((1-(((7-(8-ethyl-7-fluoro-3-hydroxynaphthalen-1-yl)-8-fluoro-4-(3-hydroxy-3-methylpiperidin-1-yl)pyrido[4,3-d]pyrimidin-2-yl)oxy)methyl)cyclopropyl)methyl)piperidin-4-yl)methoxy)benzamido)-3,3-dimethylbutanoyl)-4-hydroxy-N-((S)-1-(4-(4-methylthiazol-5-yl)phenyl)ethyl)pyrrolidine-2-carboxamide]: the IC50 (commonly the midpoint of a concentration-inhibition curve) stood at 109 nM with AGS (Homo sapiens, AGS, 96 h) and 1080 nM in the assay on H358 (Homo sapiens, NCI-H358).

With `C#Cc1c(F)ccc2cc(O)cc(-c3ncc4c(N5CCCn6nc(C(=O)N(C)C)cc6C5)nc(OCC5(CN6CCC(COc7ccc(C(=O)N[C@H](C(=O)N8C[C@H](O)C[C@H]8C(=O)N[C@@H](C)c8ccc(-c9scnc9C)cc8)C(C)(C)C)cc7)CC6)CC5)nc4c3F)c12` [Compound 89], the IC50 in the assay on AGS is 193 nM; with H358, 635 nM; with SW620, 1420 nM.

In the case of `CCc1c(F)ccc2cc(O)cc(-c3ncc4c(N5CCC[C@@](C)(O)C5)nc(OCC5(CN6CCC(Oc7cnc(-c8cn([C@H](C(=O)N9C[C@H](O)C[C@H]9C(=O)N[C@@H](CO)c9ccc(-c%10scnc%10C)cc9)C(C)C)nn8)cn7)CC6)CC5)nc4c3F)c12` [Compound 178], the values for the IC50 in the assay with AGS, with H358 and with SW620 were 2.5 nM, 5.7 nM and 9.4 nM, respectively.

Regarding `CCc1c(F)ccc2cc(O)cc(-c3ncc4c(N5CCC[C@@](C)(O)C5)nc(OCC5(CN6CCN(C7CN(c8cnc(-c9cn([C@H](C(=O)N%10C[C@H](O)C[C@H]%10C(=O)N[C@@H](C)c%10ccc(-c%11scnc%11C)cc%10)C(C)C)nn9)cn8)C7)CC6)CC5)nc4c3F)c12` [Compound 183], the IC50 in the assay with AGS turned out to be 3 nM; in the assay with H358, 12 nM; in the assay with SW620, 11 nM.

As to `CCc1c(F)ccc2cc(O)cc(-c3ncc4c(N5CCC[C@@](C)(O)C5)nc(OCC5(CN6CCC7(CC6)CN(Cc6cnc(-c8cn([C@H](C(=O)N9C[C@H](O)C[C@H]9C(=O)N[C@@H](C)c9ccc(-c%10scnc%10C)cc9)C(C)C)nn8)cn6)C7)CC5)nc4c3F)c12` [Compound 189], the IC50 in the assay on AGS was 2.9 nM; in the assay with H358, 15 nM; in the assay with SW620, 13 nM.

“(2S,4R)-1-((2R)-2-(3-(3-(4-((1-((7-(8-ethyl-7-fluoro-3-hydroxynaphthalen-1-yl)-8-fluoro-4-((R) 3-hydroxy-3-methylpiperidin-1-yl)pyrido[4,3-d]pyrimidin-2-yl)oxy)methyl)cyclopropyl)methyl) piperazin-1-yl)pyrrolidin-1-yl)isoxazol-5-yl)-3-methylbutanoyl)-4-hydroxy-N-((S)-1-(4-(4-meth ylthiazol-5-yl)phenyl)ethyl)pyrrolidine-2-carboxamide [Compound 166]”: the IC50 in the assay on AGS was found to be 4.9 nM; in the assay with H358, 21 nM; in the assay with SW620, 33 nM.

Take “(2S,4R)-1-((S)-2-(4-(5-(7-((7-(8-ethyl-7-fluoro-3-hydroxynaphthalen-1-yl)-8-fluoro-4-((R)-3-hy droxy-3-methylpiperidin-1-yl)pyrido[4,3-d]pyrimidin-2-yl)oxy)methyl)cyclopropyl)methyl)-2,7-azaspiro[3.5]nonan-2-yl)pyrazin-2-yl)-1H-1,2,3-triazol-1-yl)-3-methylbutanoyl)-4-hydroxy-N-(( R)-2-hydroxy-1-(4-(4-methylthiazol-5-yl)phenyl)ethyl)pyrrolidine-2-carboxamide [Compound 170]”: the IC50 in the assay with AGS stood at 3.6 nM; in the assay on H358, 8.5 nM; in the assay with SW620, 19 nM.
